Assay results published in paper PMC3335988 (Neurochemistry international, 2011).
Counter-ions that a name gives are not always drawn. Like-named read-outs stand apart in the source and are kept apart here. Marks after values point to notes of the source that are not given here.

Experiments:
human GluN1/GluN2C = human GluN1/GluN2C (Homo sapiens, UniProt Q05586+Q14957, INS1047EPP); assay: cell-based; type: cell-based
rat GluN1/GluN2D [1] = biological target: T1, rat GluN1/GluN2D (Rattus norvegicus, UniProt P35439+Q62645); type: cell-based; conditions: for nH (Hill slope): 30 µM glycine
rat GluN1/GluN2B [2] = biological target: T2, rat GluN1/GluN2B (Rattus norvegicus, UniProt P35439+Q00960); assay: cell-based; type: cell-based; conditions: for nH (Hill slope, inhibition): 100 µM glutamate plus 30 µM glycine; for nH (Hill slope): 30 µM glycine
human GluN1/GluN2D [3] = biological target: T3, human GluN1/GluN2D (Homo sapiens, UniProt O15399+Q05586); assay: cell-based; type: cell-based
rat GluN1/GluN2A [4] = biological target: T4, rat GluN1/GluN2A (Rattus norvegicus, UniProt P35439+Q00959); assay: Two-electrode voltage-clamp recordings, recombinant receptors in Xenopus oocytes; type: cell-based; conditions: for nH (Hill slope, inhibition): 100 µM glutamate plus 30 µM glycine; for nH (Hill slope): 30 µM glycine
rat GluN1/GluN2C = rat GluN1/GluN2C (Rattus norvegicus, UniProt P35439+Q00961); type: cell-based; conditions: for nH (Hill slope): 30 µM glycine
human GluN1/GluN2B = human GluN1/GluN2B (Homo sapiens, UniProt Q05586+Q13224); assay: cell-based; type: cell-based; conditions: for nH (Hill slope, inhibition) / nH (Hill slope) / EC50: human GluN1/GluN2B; for nH (Hill slope, inhibition): 100 µM glutamate plus 30 µM glycine; for nH (Hill slope, inhibition) / EC50: -40 mV
human GluN1/GluN2A = human GluN1/GluN2A (Homo sapiens, UniProt Q05586+Q12879); type: cell-based; conditions: for nH (Hill slope, inhibition): 100 µM glutamate plus 30 µM glycine
[5] = system: human and rat NMDA receptor subtypes; assay: Two-electrode voltage-clamp, relative agonist efficacy across subtypes; type: cell-based; conditions: range over human and rat subtypes; same recording; 30 µM glycine
human GluN1/GluN2D [6] = biological target: T3, human GluN1/GluN2D; conditions: HEK293 cells, 2 mM extracellular Ca2+, ref Hess et al., 1998; cited from earlier work
rat GluN1/GluN2D [7] = biological target: T1, rat GluN1/GluN2D; conditions: Table 2, ref Hansen and Traynelis, 2011; cited from earlier work
rat GluN1/GluN2B [8] = biological target: T2, rat GluN1/GluN2B; conditions: HEK293 cells, 2 mM extracellular Ca2+, ref Vicini et al., 1998; cited from earlier work
rat GluN1/GluN2A [9] = biological target: T4, rat GluN1/GluN2A; conditions: HEK293 cells, 2 mM extracellular Ca2+, ref Vicini et al., 1998; cited from earlier work
[10] = rat GluN1/GluN2D, 100 µM glutamate plus 30 µM glycine, -40 mV
[11] = rat GluN1/GluN2C, 100 µM glutamate plus 30 µM glycine, -40 mV
[12] = rat GluN1/GluN2D, 100 µM glutamate plus 30 µM glycine
[13] = human GluN1/GluN2D, 100 µM glutamate plus 30 µM glycine
[14] = rat GluN1/GluN2C, 100 µM glutamate plus 30 µM glycine
[15] = human GluN1/GluN2C, 100 µM glutamate plus 30 µM glycine, -40 mV
[16] = human GluN1/GluN2D, 100 µM glutamate plus 30 µM glycine, -40 mV

rat GluN1/GluN2C, sequence (Q00961 20-1237, other chains not shown): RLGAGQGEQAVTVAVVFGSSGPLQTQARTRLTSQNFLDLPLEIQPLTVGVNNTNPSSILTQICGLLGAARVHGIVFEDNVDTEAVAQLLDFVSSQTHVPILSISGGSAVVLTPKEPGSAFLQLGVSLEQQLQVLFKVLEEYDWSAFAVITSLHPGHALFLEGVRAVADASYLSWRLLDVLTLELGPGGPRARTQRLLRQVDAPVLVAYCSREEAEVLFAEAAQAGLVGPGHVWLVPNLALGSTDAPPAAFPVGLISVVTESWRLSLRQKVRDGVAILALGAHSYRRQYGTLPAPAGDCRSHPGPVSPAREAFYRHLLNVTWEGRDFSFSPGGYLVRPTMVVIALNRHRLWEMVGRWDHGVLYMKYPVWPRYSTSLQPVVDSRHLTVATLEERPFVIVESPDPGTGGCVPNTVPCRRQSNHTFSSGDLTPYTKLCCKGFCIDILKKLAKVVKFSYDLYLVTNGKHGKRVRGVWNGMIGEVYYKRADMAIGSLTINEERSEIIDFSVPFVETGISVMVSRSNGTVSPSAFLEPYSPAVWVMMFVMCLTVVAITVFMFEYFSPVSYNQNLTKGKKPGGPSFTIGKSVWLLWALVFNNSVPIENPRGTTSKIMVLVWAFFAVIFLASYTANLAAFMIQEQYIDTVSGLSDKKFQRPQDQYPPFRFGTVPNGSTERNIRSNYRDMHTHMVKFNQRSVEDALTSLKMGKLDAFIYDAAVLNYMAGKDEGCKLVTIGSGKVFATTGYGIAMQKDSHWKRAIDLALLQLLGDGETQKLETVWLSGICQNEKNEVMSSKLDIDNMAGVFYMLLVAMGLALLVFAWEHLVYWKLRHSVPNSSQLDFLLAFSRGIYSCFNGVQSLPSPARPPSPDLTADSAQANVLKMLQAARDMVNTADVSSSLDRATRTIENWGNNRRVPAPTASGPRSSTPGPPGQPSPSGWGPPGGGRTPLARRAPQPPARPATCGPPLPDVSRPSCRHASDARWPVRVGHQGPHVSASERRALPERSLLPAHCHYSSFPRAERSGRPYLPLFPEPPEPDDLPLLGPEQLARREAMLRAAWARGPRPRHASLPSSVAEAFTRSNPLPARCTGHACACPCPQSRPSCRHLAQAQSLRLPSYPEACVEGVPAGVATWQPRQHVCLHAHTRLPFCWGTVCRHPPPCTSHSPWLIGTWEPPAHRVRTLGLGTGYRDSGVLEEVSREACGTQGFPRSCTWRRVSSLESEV
T3 sequence (O15399 28-1336, other chains not shown): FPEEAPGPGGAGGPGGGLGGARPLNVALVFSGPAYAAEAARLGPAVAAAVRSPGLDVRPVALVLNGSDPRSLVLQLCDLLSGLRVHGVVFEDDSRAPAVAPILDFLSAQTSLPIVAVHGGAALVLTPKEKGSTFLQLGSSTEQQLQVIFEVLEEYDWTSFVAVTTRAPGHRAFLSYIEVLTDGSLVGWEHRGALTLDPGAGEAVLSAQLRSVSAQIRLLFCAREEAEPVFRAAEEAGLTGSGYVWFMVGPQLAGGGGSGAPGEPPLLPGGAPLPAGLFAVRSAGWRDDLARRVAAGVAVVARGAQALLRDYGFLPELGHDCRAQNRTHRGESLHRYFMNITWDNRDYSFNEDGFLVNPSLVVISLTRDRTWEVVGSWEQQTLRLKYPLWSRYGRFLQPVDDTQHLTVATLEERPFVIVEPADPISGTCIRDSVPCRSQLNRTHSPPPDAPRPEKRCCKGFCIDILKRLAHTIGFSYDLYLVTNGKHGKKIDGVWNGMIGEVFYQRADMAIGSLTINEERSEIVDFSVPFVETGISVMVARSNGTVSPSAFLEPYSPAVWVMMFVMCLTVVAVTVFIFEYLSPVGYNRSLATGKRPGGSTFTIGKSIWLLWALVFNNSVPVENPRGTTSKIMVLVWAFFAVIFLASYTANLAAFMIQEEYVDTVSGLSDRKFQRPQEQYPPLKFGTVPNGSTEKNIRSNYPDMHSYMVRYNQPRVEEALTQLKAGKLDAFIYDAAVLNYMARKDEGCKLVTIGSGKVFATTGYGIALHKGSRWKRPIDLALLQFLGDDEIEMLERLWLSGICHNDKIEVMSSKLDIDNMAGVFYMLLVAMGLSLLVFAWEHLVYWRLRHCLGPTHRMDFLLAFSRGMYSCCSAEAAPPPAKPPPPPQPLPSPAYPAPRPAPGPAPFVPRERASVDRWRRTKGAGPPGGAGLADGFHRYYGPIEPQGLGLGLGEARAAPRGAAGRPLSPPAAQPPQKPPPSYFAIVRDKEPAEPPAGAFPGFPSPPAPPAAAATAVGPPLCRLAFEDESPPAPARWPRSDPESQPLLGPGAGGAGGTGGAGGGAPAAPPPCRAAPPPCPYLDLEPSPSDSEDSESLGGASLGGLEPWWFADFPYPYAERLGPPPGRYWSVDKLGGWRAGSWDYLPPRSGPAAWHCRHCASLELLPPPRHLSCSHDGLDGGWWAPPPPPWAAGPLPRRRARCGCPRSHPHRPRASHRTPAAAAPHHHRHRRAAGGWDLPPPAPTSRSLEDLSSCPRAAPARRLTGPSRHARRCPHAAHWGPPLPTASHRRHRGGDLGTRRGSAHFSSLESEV
human GluN1/GluN2A, sequence (Q12879 23-1464, other chains not shown): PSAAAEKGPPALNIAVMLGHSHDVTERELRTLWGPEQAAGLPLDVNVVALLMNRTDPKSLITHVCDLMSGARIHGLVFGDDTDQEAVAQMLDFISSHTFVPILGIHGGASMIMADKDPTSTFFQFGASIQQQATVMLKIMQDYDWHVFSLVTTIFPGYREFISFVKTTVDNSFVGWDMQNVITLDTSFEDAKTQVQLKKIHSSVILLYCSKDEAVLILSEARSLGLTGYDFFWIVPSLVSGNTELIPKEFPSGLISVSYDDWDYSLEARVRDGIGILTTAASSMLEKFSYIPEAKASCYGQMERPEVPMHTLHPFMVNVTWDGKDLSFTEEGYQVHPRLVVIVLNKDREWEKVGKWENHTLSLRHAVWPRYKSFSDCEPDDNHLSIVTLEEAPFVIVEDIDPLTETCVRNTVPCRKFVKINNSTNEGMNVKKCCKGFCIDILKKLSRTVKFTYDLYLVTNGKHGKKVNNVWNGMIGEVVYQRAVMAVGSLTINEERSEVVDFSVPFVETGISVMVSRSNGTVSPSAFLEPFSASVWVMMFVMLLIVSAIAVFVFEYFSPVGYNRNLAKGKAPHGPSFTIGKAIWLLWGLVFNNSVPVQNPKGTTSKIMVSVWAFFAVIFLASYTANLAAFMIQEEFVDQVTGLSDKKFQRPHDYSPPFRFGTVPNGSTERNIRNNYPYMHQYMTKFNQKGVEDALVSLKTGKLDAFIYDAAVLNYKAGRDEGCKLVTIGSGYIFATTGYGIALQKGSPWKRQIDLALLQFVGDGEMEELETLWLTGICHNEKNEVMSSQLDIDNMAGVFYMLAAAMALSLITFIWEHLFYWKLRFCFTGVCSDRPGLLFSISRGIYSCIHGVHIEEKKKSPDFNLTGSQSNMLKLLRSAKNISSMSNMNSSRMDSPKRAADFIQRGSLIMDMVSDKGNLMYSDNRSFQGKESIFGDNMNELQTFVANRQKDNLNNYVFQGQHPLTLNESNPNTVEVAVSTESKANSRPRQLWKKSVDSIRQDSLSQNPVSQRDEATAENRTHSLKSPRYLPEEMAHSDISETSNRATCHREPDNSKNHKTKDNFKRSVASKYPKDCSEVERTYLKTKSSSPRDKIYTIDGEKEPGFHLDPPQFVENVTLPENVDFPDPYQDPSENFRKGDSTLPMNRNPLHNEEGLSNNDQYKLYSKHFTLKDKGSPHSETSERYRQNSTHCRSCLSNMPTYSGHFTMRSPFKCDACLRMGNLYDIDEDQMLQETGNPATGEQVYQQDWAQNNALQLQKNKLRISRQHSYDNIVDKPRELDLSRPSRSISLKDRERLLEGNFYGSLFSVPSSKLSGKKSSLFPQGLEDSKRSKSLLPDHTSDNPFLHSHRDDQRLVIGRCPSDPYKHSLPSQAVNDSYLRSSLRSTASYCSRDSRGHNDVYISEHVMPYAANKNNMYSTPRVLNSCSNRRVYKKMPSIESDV

## CN[C@]1(c2ccccc2Cl)CCCCC1=O [(+)ketamine, S-(+)-ketamine hydrochloride]
Human GluN1/GluN2C
  IC50: 0.79 ± 0.04 µM
  nH (Hill slope, inhibition): 0.9
Rat GluN1/GluN2D [1]; GluN1/GluN2D, rat vs human
  IC50 fold lower at rat compared to corresponding human subtype: 1.7 fold
Rat GluN1/GluN2D [1]; [10]
  nH (Hill slope, inhibition): 1.0
Rat GluN1/GluN2B [2]; GluN1/GluN2B, rat vs human
  IC50 fold lower at rat compared to corresponding human subtype: 1.6 fold
Rat GluN1/GluN2B [2]; rat GluN1/GluN2B, -40 mV
  nH (Hill slope, inhibition): 0.9
Human GluN1/GluN2D [3]
  IC50: 2.4 ± 0.1 µM
  nH (Hill slope, inhibition): 0.9
Rat GluN1/GluN2A [4]; rat GluN1/GluN2A, -40 mV
  nH (Hill slope, inhibition): 1.0
Rat GluN1/GluN2C; [11]
  nH (Hill slope, inhibition): 1.0
Human GluN1/GluN2B
  nH (Hill slope, inhibition): 1.0
Human GluN1/GluN2A; -40 mV
  nH (Hill slope, inhibition): 1.0

## COc1ccc(OCC2c3cc(OC)c(OC)cc3CCN2C(=O)c2cccc(Cl)c2)cc1 (centres unmarked) [CIQ, (3-chlorophenyl) [3,4-dihydro-6,7-dimethoxy-1-[(4-methoxyphenoxy)methyl]-2(1H)-isoquinolinyl]methanone]
Human GluN1/GluN2C; human GluN1/GluN2C, 100 µM glutamate plus 30 µM glycine
  nH (Hill slope, potentiation): 1.6
Rat GluN1/GluN2D [1]; [12]
  maximal potentiation compared to NMDA receptor currents in the absence of CIQ: 240 ± 20
  nH (Hill slope, potentiation): 1.3
Human GluN1/GluN2D [3]; [13]
  maximal potentiation compared to NMDA receptor currents in the absence of CIQ: 250 ± 10
  nH (Hill slope, potentiation): 1.3
Rat GluN1/GluN2C; [14]
  maximal potentiation compared to NMDA receptor currents in the absence of CIQ: 260 ± 30
  nH (Hill slope, potentiation): 1.1

## CN[C@H](CC(=O)O)C(=O)O [NMDA, N-methyl-D-aspartate]
Human GluN1/GluN2C
  EC50: 19 ± 1 µM
  nH (Hill slope): 1.2
Rat GluN1/GluN2D [1]; rat GluN1/GluN2D
  nH (Hill slope): 1.7
Rat GluN1/GluN2D [1]; rat GluN1/GluN2D, continuous presence of 30 µM glycine, -40 mV
  EC50: 7.9 ± 0.9 µM
Rat GluN1/GluN2B [2]; rat GluN1/GluN2B
  nH (Hill slope): 1.7
Rat GluN1/GluN2B [2]; rat GluN1/GluN2B, continuous presence of 30 µM glycine, -40 mV
  EC50: 21 ± 4 µM
[5]
  maximal activation compared to maximal activation by the full agonist glutamate: 69–89%
Human GluN1/GluN2D [3]
  EC50: 6.7 ± 0.2 µM
  nH (Hill slope): 2.1
Rat GluN1/GluN2A [4]; rat GluN1/GluN2A
  nH (Hill slope): 1.5
Rat GluN1/GluN2A [4]; rat GluN1/GluN2A, continuous presence of 30 µM glycine, -40 mV
  EC50: 71 ± 9 µM
Rat GluN1/GluN2C; rat GluN1/GluN2C
  nH (Hill slope): 1.4
Rat GluN1/GluN2C; rat GluN1/GluN2C, continuous presence of 30 µM glycine, -40 mV
  EC50: 19 ± 2 µM
Human GluN1/GluN2B; 30 µM glycine
  nH (Hill slope): 1.4
Human GluN1/GluN2B; continuous presence of 30 µM glycine
  EC50: 23 ± 2 µM
Human GluN1/GluN2A; 30 µM glycine
  nH (Hill slope): 1.3
Human GluN1/GluN2A; continuous presence of 30 µM glycine, -40 mV
  EC50: 68 ± 3 µM

## COc1ccc2nc(/C=C/c3cccc([N+](=O)[O-])c3)n(-c3ccc(C(=O)O)cc3)c(=O)c2c1 [QNZ46, (E)-4-(6-methoxy-2-(3-nitrostyryl)-4-oxoquinazolin-3(4H)-yl)-benzoic acid]
Human GluN1/GluN2C; [15]
  nH (Hill slope, inhibition): 1.0
Rat GluN1/GluN2D [1]; [10]
  nH (Hill slope, inhibition): 1.0
Rat GluN1/GluN2B [2]
  IC50: > 100 µM
Human GluN1/GluN2D [3]; [16]
  nH (Hill slope, inhibition): 1.0
Rat GluN1/GluN2C; GluN1/GluN2C, rat vs human
  IC50 fold higher at rat compared to human: 1.2 fold
Rat GluN1/GluN2C; [11]
  nH (Hill slope, inhibition): 1.2
Human GluN1/GluN2B
  IC50: > 100 µM

## NC(=NCc1ccc(Cl)cc1)SCCCc1cnc[nH]1 [clobenpropit, N-(4-chlorobenzyl)-S-[3-(4(5)-imidazolyl)propyl]isothiourea dihydrobromide]
Human GluN1/GluN2C; [15]
  nH (Hill slope, inhibition): 0.9
Rat GluN1/GluN2D [1]; [10]
  nH (Hill slope, inhibition): 0.9
Rat GluN1/GluN2B [2]; rat GluN1/GluN2B, -40 mV
  nH (Hill slope, inhibition): 1.3
Human GluN1/GluN2D [3]; [16]
  nH (Hill slope, inhibition): 1.0
Rat GluN1/GluN2A [4]; GluN1/GluN2A, rat vs human
  IC50 fold higher at rat compared to human: 1.9 fold
Rat GluN1/GluN2C; [11]
  nH (Hill slope, inhibition): 0.8
Human GluN1/GluN2B
  nH (Hill slope, inhibition): 1.0
Human GluN1/GluN2A; -40 mV
  nH (Hill slope, inhibition): 1.0

## OC(CN1CCC(Cc2ccc(F)cc2)CC1)c1ccc(Cl)cc1 (stereo not drawn) [eliprodil, α-(4-chlorophenyl)-4-[(4-fluorophenyl)methyl]-1-piperidineethanol]
Rat GluN1/GluN2B [2]; rat GluN1/GluN2B, -40 mV
  nH (Hill slope, inhibition): 1.2
Human GluN1/GluN2B
  nH (Hill slope, inhibition): 1.3

## N[C@@H](CCC(=O)O)C(=O)O [glutamate, L-glutamic acid]
Human GluN1/GluN2C
  nH (Hill slope): 1.6
Rat GluN1/GluN2D [1]; rat GluN1/GluN2D
  nH (Hill slope): 1.5
Human GluN1/GluN2D [6]
  τdeactivation glutamate (weighted time constant): 6300 ^a ms
Rat GluN1/GluN2B [2]; rat GluN1/GluN2B
  nH (Hill slope): 1.5
Rat GluN1/GluN2D [7]
  τdeactivation following removal of glutamate: > 2 s
Human GluN1/GluN2D [3]
  nH (Hill slope): 1.5
Rat GluN1/GluN2A [4]; rat GluN1/GluN2A
  nH (Hill slope): 1.4
Rat GluN1/GluN2B [8]
  τdeactivation glutamate (weighted time constant): 287 ^k ms
Rat GluN1/GluN2C; rat GluN1/GluN2C
  nH (Hill slope): 1.4
Human GluN1/GluN2B; 30 µM glycine
  nH (Hill slope): 1.8
Rat GluN1/GluN2A [9]
  τdeactivation glutamate (weighted time constant): 54 ^k ms
Human GluN1/GluN2A; 30 µM glycine
  nH (Hill slope): 1.3

## NCC(=O)O [glycine]
Human GluN1/GluN2C
  EC50: 0.25 ± 0.01 µM
  nH (Hill slope): 1.6
Human GluN1/GluN2D [6]
  τdeactivation glycine (weighted time constant): 1800 ^a ms
Human GluN1/GluN2D [3]
  EC50: 0.12 ± 0.01 µM
  nH (Hill slope): 1.8
Human GluN1/GluN2B; 100 µM glutamate
  nH (Hill slope): 1.7
Human GluN1/GluN2B; continuous presence of 100 µM glutamate
  EC50: 0.29 ± 0.04 µM
Human GluN1/GluN2A; 100 µM glutamate
  nH (Hill slope): 1.3

## CC(C(O)c1ccc(O)cc1)N1CCC(Cc2ccccc2)CC1 (stereo not drawn) [ifenprodil, (1R*,2S*)-erythro-2-(4-benzylpiperidino)-1-(4-hydroxyphenyl)-1-propanol hemitartrate]
Rat GluN1/GluN2B [2]; rat GluN1/GluN2B, -40 mV
  nH (Hill slope, inhibition): 1.2
Rat GluN1/GluN2A [4]; rat GluN1/GluN2A, -40 mV
  nH (Hill slope, inhibition): 1.2
Human GluN1/GluN2B
  nH (Hill slope, inhibition): 1.1

## CC12CC3CC(C)(C1)CC(N)(C3)C2 [memantine, memantine hydrochloride]
Human GluN1/GluN2C
  nH (Hill slope, inhibition): 1.0
Human GluN1/GluN2D [3]
  nH (Hill slope, inhibition): 0.9
Human GluN1/GluN2B
  nH (Hill slope, inhibition): 1.0
Human GluN1/GluN2A; -40 mV
  nH (Hill slope, inhibition): 1.1
